Measured values reported in PubChem BioAssay AID651557 (The Scripps Research Institute Molecular Screening Center, 2012).
Activity calls are given as the source filed them.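 How the source made its calls: active means IC50 half-maximal inhibitory concentration at most 10 µM; inactive means IC50 above 10 µM.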

Target: Melanocortin receptor 4 (Homo sapiens) (UniProt P32245)
Assay: inhibition of agonist-driven MC4R beta-arrestin coupling – luminescence, biased ligand project, U2OS cells, late-stage follow-up (AID 651557)
Conditions: U2OS MC4R beta-arrestin recruitment, beta-gal complementation luminescence

Melanocortin receptor 4 (Homo sapiens), sequence (P32245 whole entry, looked up): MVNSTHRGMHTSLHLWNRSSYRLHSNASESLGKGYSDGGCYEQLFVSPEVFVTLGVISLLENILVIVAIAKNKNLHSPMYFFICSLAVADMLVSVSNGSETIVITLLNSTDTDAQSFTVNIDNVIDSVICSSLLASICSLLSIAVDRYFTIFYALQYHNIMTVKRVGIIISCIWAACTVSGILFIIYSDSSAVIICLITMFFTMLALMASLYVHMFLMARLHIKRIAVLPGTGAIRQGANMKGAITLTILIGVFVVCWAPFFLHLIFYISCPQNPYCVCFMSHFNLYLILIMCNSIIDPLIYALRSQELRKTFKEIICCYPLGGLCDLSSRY

SMILES	IC50
CC(=O)c1ccc(Nc2nc3ccc(C(=O)N(CCC(C)C)CCC(C)C)cc3n2CCCN2CCCCC2)cc1	0.00232 µM
CCC1CCCCN1S(=O)(=O)c1ccc(NC(=O)c2cccc(S(C)(=O)=O)c2)cc1 (configuration not stated)	> 50 µM (inactive)
O=C1c2cccc3cccc(c23)C(=O)N1CC1CCN(CC(O)COc2ccc3ccccc3c2)CC1 (configuration not stated)	> 50 µM (inactive)
CNC(=O)c1cc(Oc2ccc(NC(=O)CNc3ccc(Cl)c(C(F)(F)F)c3)cc2)ccn1	> 50 µM (inactive)
COc1ccccc1C1(CCNC(C)c2cccs2)CCOC(C(C)C)C1 (configuration not stated)	6.73 µM
CCC1CCCCN1S(=O)(=O)c1ccc(NC(=O)c2ccnc(SC)n2)cc1 (configuration not stated)	> 50 µM (inactive)
CNC(=O)c1cc(Oc2ccc(NCC(=O)Nc3ccc(Cl)c(C(F)(F)F)c3)cc2)ccn1	> 50 µM (inactive)
Cc1ccccc1CN1Cc2cnnn2-c2ccccc2C1C#N (configuration not stated)	inactive
CCC1CCCCN1S(=O)(=O)c1ccc(NC(=O)c2ccccc2)cc1 (configuration not stated)	> 50 µM (inactive)
COc1ccc(N(C(C)=O)C(C(=O)NC2CCCC2)c2cccs2)cc1OC (configuration not stated)	> 50 µM (inactive)
CC1CCCCN1S(=O)(=O)c1ccc(NC(=O)c2nc(S(C)(=O)=O)ncc2Cl)cc1 (configuration not stated)	3.55 µM
C#CC(=O)N(c1ccc(OC)c(OC)c1)C(C(=O)NC1CCCC1)c1cccs1 (configuration not stated)	inactive
